{"source": "paper PMC5216056", "about": "(Nature Communications, 2017)", "key": {"Rat recombinant TRPV4": {"target": "T1, Rat recombinant TRPV4 (Rattus norvegicus, UniProt Q9ERZ8)", "T1 construct": "expressed in transfected cells; host or cells: HEK293 (TRPV4-HEK-293, gift from HB Bradshaw, Indiana University)", "T1 sequence (Q9ERZ8 whole entry)": "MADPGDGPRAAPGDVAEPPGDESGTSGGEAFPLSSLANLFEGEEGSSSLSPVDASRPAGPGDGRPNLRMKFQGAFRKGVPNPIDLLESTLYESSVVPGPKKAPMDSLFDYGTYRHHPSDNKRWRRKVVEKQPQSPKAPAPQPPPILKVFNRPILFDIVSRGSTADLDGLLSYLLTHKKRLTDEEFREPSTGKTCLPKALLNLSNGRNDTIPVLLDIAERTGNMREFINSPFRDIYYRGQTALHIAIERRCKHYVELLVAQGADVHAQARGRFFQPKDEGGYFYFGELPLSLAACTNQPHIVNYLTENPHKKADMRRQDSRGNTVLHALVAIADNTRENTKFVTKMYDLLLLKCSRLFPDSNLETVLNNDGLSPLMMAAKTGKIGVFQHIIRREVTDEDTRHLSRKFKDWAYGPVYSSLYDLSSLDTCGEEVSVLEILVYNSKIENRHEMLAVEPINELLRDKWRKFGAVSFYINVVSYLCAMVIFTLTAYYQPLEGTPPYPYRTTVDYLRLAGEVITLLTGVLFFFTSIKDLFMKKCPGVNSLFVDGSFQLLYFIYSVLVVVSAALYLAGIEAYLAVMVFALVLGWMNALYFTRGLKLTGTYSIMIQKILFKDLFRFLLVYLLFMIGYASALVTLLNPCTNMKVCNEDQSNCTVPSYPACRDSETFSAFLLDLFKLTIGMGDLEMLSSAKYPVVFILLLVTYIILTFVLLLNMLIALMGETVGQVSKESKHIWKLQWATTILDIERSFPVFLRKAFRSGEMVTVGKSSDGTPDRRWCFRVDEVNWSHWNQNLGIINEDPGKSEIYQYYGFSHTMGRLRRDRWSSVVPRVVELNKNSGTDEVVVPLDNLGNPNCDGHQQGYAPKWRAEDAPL", "test": "cell-based", "assay_type": "cell-based"}, "Rat recombinant TRPV3": {"target": "T2, Rat recombinant TRPV3 (Rattus norvegicus, UniProt Q4QYD9)", "T2 construct": "expressed in transfected cells; host or cells: HEK293 (TRPV3-HEK-293, gift from HB Bradshaw, Indiana University)", "T2 sequence (Q4QYD9 1-791)": "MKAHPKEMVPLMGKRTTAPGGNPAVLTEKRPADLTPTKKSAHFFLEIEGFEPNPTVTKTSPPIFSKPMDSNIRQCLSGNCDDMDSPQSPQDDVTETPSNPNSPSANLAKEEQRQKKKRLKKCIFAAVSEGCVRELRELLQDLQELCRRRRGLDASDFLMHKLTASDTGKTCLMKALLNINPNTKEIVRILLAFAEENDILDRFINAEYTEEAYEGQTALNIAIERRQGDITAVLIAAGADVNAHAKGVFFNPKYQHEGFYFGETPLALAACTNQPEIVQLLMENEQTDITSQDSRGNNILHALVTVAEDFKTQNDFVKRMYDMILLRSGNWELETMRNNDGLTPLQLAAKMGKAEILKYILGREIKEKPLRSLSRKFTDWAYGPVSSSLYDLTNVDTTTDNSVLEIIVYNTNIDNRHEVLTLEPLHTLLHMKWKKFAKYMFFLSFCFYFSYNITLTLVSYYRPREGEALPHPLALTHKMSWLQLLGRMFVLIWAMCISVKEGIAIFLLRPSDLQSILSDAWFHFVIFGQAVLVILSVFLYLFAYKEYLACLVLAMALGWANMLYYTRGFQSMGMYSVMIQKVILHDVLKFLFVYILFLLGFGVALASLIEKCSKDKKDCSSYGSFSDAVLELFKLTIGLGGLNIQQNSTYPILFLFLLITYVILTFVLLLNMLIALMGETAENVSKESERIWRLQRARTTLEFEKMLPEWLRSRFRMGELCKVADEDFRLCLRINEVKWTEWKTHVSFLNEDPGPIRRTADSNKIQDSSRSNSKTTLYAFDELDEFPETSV", "test": "cell-based", "assay_type": "cell-based"}, "hCB1R [1]": {"target": "T3, hCB1R (Homo sapiens, UniProt P21554)", "T3 construct": "host or cells: CHO", "T3 sequence (P21554 whole entry)": "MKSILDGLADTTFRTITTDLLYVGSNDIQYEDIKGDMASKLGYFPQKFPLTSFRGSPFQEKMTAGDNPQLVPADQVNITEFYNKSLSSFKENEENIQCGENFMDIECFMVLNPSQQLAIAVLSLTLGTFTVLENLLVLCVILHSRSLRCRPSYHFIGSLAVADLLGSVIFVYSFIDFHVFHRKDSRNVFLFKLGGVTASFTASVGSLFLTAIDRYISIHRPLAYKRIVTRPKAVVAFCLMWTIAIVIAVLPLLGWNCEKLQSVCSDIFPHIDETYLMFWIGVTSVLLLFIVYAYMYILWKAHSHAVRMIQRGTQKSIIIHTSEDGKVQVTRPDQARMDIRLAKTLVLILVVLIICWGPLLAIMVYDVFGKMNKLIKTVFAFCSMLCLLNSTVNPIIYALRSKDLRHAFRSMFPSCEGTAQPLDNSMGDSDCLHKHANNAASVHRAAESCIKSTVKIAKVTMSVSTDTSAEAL", "test": "biochemical", "assay_type": "biochemical"}, "hCB2R": {"target": "hCB2R (Homo sapiens, UniProt P34972)", "sequence (P34972 whole entry)": "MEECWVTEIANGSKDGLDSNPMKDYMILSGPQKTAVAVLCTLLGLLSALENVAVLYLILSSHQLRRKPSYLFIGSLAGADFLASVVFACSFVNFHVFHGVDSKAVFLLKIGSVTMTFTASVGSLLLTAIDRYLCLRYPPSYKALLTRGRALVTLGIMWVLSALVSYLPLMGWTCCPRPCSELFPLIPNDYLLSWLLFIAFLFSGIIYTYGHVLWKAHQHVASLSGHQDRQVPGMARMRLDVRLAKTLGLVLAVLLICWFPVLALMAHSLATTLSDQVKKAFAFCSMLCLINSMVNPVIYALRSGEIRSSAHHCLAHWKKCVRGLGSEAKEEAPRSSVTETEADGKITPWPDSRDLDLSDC", "set-up": "expressed in transfected cells; host or cells: Flp-In-293 (Invitrogen #R750-07), pcDNA5/FRT", "conditions": "hCB2R"}, "Rat recombinant TRPM8": {"target": "T4, Rat recombinant TRPM8 (Rattus norvegicus, UniProt Q8R455)", "T4 construct": "expressed in transfected cells; host or cells: HEK293 (TRPM8-HEK-293, gift from Mario van der Stelt)", "T4 sequence (Q8R455 whole entry)": "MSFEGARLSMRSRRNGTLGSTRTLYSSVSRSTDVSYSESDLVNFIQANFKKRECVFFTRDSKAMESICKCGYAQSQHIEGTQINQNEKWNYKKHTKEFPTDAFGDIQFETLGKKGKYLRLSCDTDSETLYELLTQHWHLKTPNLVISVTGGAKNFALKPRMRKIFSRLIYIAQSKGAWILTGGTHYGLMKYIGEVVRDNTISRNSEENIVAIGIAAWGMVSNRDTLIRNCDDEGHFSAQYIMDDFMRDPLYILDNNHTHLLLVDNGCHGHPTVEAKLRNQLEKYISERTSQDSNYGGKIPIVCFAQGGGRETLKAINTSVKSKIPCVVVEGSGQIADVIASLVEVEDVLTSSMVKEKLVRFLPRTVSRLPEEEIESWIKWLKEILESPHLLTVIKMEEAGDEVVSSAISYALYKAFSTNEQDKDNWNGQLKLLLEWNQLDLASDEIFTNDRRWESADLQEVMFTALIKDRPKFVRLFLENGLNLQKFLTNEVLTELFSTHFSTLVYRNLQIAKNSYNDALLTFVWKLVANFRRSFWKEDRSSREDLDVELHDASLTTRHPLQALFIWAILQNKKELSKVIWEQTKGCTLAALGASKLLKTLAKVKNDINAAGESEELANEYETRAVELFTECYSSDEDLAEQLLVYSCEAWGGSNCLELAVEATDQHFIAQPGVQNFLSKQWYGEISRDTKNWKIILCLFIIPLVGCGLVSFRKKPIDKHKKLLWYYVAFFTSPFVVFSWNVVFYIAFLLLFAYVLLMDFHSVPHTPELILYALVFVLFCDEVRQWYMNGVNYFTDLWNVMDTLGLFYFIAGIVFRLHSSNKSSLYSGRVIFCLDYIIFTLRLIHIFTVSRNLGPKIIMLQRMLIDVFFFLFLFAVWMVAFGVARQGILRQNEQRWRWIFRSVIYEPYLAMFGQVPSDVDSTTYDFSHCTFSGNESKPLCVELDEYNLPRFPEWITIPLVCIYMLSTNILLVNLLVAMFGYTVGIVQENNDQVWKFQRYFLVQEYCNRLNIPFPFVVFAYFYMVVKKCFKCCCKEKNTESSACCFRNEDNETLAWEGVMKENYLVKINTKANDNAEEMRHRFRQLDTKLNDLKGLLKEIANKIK", "test": "TRP channel [Ca2+]i assay", "assay_type": "cell-based", "conditions": "vs icilin […]; read-out: TRPM8 IC50 for antagonism of icilin"}, "[2]": {"conditions": "1 μM"}, "BZD (central)": {"system": "BZD (central)", "assay_type": "binding", "conditions": "10 µM"}, "hCB1R [3]": {"target": "T3, hCB1R", "test": "cell-based", "assay_type": "cell-based"}, "[4]": {"conditions": "1 μM", "remark": "listed apart in the source"}}}
{"smiles": "CN1CCCC[C@H]1Cn1cc(C(=O)c2cc([N+](=O)[O-])ccc2I)c2ccccc21", "note": "[(S)-AM1241]", "values": [{"measurement": "TRPV4 Efficacy (% ionomycin 4μM)", "setting": "Rat recombinant TRPV4", "result": "< 10", "unit": "%"}, {"measurement": "IC50", "setting": "Rat recombinant TRPV4; vs 4αPDD 1μM, read-out: TRPV4 IC50 for desensitization", "result": "8.6 ± 0.3", "unit": "µM"}, {"measurement": "TRPV3 Efficacy (% ionomycin 4μM)", "setting": "Rat recombinant TRPV3", "result": 16.2, "unit": "%"}, {"measurement": "EC50", "setting": "Rat recombinant TRPV3; read-out: TRPV3 Potency EC50", "result": 9, "unit": "µM"}, {"measurement": "IC50", "setting": "Rat recombinant TRPV3; vs thymol 100μM, read-out: TRPV3 IC50 for antagonism or desensitization", "result": "> 50", "unit": "µM"}, {"measurement": "pEC50 ± SEM GTPγS hCB1R", "setting": "hCB1R [1]", "result": "< 5"}, {"measurement": "GIRK-GTPγS bias factor (BF)", "setting": "hCB2R", "result": 0.16}, {"measurement": "GIRK-GTPγS ΔΔlogR", "setting": "hCB2R", "result": -0.79}, {"measurement": "LogR GIRK", "setting": "hCB2R", "result": 5.70}, {"measurement": "LogR GTPγS", "setting": "hCB2R", "result": 6.9}, {"measurement": "LogR pERK", "setting": "hCB2R", "result": 7.54}, {"measurement": "LogR β-AR", "setting": "hCB2R", "result": 5.97}, {"measurement": "pERK-GIRK bias factor (BF)", "setting": "hCB2R", "result": 4.72}, {"measurement": "pERK-GIRK ΔΔlogR", "setting": "hCB2R", "result": "0.68 ± 0.37"}, {"measurement": "pERK-GTPγS bias factor (BF)", "setting": "hCB2R", "result": 0.77}, {"measurement": "pERK-GTPγS ΔΔlogR", "setting": "hCB2R", "result": -0.11}, {"measurement": "β-AR-GIRK bias factor (BF)", "setting": "hCB2R", "result": 0.43}, {"measurement": "β-AR-GIRK ΔΔlogR", "setting": "hCB2R", "result": "-0.37 ± 0.33"}, {"measurement": "β-AR-GTPγS bias factor (BF)", "setting": "hCB2R", "result": 0.07}, {"measurement": "β-AR-GTPγS ΔΔlogR", "setting": "hCB2R", "result": "-1.16 ± 0.57"}, {"measurement": "β-AR-pERK bias factor (BF)", "setting": "hCB2R", "result": 0.09}, {"measurement": "β-AR-pERK ΔΔlogR", "setting": "hCB2R", "result": "-1.05 ± 0.44"}, {"measurement": "ΔLogR GIRK", "setting": "hCB2R; reference CP55940", "result": -2.17}, {"measurement": "ΔLogR GTPγS", "setting": "hCB2R; reference CP55940", "result": -1.38}, {"measurement": "ΔLogR pERK", "setting": "hCB2R; reference CP55940", "result": -1.49}, {"measurement": "ΔLogR β-AR", "setting": "hCB2R; reference CP55940", "result": -2.54}, {"measurement": "RE GIRK", "setting": "hCB2R; relative effectiveness", "result": 0.01}, {"measurement": "RE GTPγS", "setting": "hCB2R; relative effectiveness", "result": 0.04}, {"measurement": "RE pERK", "setting": "hCB2R; relative effectiveness", "result": 0.03}, {"measurement": "RE β-AR", "setting": "hCB2R; relative effectiveness", "result": 0.003}, {"measurement": "IC50", "setting": "Rat recombinant TRPM8", "result": "> 50", "unit": "µM"}, {"measurement": "CL hepatocytes human", "setting": "[2]", "result": 37, "unit": "µL/min/mio cells"}, {"measurement": "% inhibition BZD (central)", "setting": "BZD (central)", "result": -1, "unit": "%"}, {"measurement": "Emax ± SEM β-AR recruitment hCB1R", "setting": "hCB1R [3]", "result": "2 ± 1"}, {"measurement": "pEC50 ± SEM β-AR recruitment hCB1R", "setting": "hCB1R [3]", "result": "< 5"}, {"measurement": "CL microsomes human", "setting": "[4]", "result": 152, "unit": "µL/min/mg protein"}]}
